Measurements: PMC8632988, “Inhibition of SYK and cSrc kinases can protect bone and cartilage in preclinical models of osteoarthritis and rheumatoid arthritis” (Scientific Reports, 2021)
Read-outs that look alike come from different tables or passages of the source.

Tests used:
CAMK2d = biological target: T1, CAMK2d (Homo sapiens, UniProt Q13557); assay: Kinase selectivity profile assay; type: biochemical; conditions: read-out: Residual enzymatic activity
T1 construct: purchased Reaction Biology Corporation
Summary of the method: (§1)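 Radiometric kinase assay run by a standard protocol. Unbound phosphate was removed by washing filters in phosphoric acid, and product radioactivity gave percent remaining kinase activity versus DMSO vehicle reactions. Run in duplicate.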

CLK1 = biological target: T2, CLK1 (Homo sapiens, UniProt P49759); assay: Kinase selectivity profile assay; type: biochemical; conditions: 500 nM; relative to DMSO; read-out: Residual enzymatic activity
T2 construct: purchased Reaction Biology Corporation
Summary of the method: as §1

HPK1/MAP4K1 = biological target: T3, HPK1/MAP4K1 (Homo sapiens, UniProt Q92918); assay: Kinase selectivity profile assay; type: biochemical; conditions: 500 nM; relative to DMSO; read-out: Residual enzymatic activity
T3 construct: purchased Reaction Biology Corporation
Summary of the method: as §1

LIMK2 = biological target: T4, LIMK2 (Homo sapiens, UniProt P53671); assay: Kinase selectivity profile assay; type: biochemical; conditions: 500 nM; relative to DMSO; read-out: Residual enzymatic activity
T4 construct: purchased Reaction Biology Corporation
Summary of the method: as §1

LRRK2 = biological target: T5, LRRK2 (Homo sapiens, UniProt Q5S007); assay: Kinase selectivity profile assay; type: biochemical; conditions: for remaining activity at 0.5 µM: 500 nM, relative to DMSO, read-out: Residual enzymatic activity
T5 construct: purchased Reaction Biology Corporation (assay service)
Summary of the method: as §1

MST1/STK4 = biological target: T6, MST1/STK4 (Homo sapiens, UniProt Q13043); assay: Kinase selectivity profile assay; type: biochemical; conditions: 500 nM; relative to DMSO; read-out: Residual enzymatic activity
T6 construct: purchased Reaction Biology Corporation
Summary of the method: as §1

PKN1/PRK1 = biological target: T7, PKN1/PRK1 (Homo sapiens, UniProt Q16512); assay: Kinase selectivity profile assay; type: biochemical; conditions: 500 nM; relative to DMSO; read-out: Residual enzymatic activity
T7 construct: purchased Reaction Biology Corporation
Summary of the method: as §1

RAF1 = biological target: T8, RAF1 (Homo sapiens, UniProt P04049); assay: Kinase selectivity profile assay; type: biochemical; conditions: 500 nM; relative to DMSO; read-out: Residual enzymatic activity
T8 construct: purchased Reaction Biology Corporation
Summary of the method: as §1

c-Kit = biological target: T9, c-Kit (Homo sapiens, UniProt P10721); assay: Kinase selectivity profile assay; type: biochemical; conditions: 500 nM, relative to DMSO; for remaining activity at 0.5 µM: read-out: Residual enzymatic activity
T9 construct: purchased Reaction Biology Corporation
Summary of the method: as §1

341 kinases = assay: Kinase selectivity profile, whole panel; type: biochemical, human; conditions: 500 nM
Description: The activity of MT-SYK-03 against cSrc kinase and selectivity profile towards other 341 kinases was determined at Reaction Biology Corporation (Malvern, PA, USA) using the standard kinase assay protocol. […]; unbound phosphate was removed by extensive washing of filters in phosphoric acid. Kinase activity data was expressed as the percent remaining kinase activity in test samples compared to vehicle (dimethyl sulfoxide) reactions based on the radioactivity of reaction products (see Table S2). Experiment was replicated twice.

T9 sequence (P10721 26-976): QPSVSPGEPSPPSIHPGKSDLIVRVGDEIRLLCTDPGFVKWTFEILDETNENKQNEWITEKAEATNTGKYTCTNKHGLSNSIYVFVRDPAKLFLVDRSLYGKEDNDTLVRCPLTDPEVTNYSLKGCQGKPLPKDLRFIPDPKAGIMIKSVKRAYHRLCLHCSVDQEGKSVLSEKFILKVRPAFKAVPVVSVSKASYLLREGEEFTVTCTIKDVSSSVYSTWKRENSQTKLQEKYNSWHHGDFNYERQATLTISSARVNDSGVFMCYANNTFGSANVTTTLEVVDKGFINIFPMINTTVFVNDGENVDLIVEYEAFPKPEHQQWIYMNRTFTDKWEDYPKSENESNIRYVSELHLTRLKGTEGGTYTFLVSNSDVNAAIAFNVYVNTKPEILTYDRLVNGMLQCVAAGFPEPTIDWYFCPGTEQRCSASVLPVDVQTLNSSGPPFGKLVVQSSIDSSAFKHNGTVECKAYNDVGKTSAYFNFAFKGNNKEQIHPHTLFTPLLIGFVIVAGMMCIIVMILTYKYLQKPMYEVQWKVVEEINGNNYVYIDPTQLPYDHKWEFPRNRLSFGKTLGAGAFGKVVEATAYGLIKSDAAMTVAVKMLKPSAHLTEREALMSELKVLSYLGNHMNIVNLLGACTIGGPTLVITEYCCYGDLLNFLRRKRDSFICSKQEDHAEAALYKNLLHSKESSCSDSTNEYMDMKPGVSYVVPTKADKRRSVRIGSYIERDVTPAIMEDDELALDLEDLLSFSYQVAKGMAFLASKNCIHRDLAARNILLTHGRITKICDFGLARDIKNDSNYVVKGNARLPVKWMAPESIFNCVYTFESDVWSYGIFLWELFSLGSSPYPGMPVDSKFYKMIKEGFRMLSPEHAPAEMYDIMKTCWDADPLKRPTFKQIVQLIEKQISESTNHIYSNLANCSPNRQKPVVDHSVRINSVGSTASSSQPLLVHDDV
T5 sequence (Q5S007 whole entry): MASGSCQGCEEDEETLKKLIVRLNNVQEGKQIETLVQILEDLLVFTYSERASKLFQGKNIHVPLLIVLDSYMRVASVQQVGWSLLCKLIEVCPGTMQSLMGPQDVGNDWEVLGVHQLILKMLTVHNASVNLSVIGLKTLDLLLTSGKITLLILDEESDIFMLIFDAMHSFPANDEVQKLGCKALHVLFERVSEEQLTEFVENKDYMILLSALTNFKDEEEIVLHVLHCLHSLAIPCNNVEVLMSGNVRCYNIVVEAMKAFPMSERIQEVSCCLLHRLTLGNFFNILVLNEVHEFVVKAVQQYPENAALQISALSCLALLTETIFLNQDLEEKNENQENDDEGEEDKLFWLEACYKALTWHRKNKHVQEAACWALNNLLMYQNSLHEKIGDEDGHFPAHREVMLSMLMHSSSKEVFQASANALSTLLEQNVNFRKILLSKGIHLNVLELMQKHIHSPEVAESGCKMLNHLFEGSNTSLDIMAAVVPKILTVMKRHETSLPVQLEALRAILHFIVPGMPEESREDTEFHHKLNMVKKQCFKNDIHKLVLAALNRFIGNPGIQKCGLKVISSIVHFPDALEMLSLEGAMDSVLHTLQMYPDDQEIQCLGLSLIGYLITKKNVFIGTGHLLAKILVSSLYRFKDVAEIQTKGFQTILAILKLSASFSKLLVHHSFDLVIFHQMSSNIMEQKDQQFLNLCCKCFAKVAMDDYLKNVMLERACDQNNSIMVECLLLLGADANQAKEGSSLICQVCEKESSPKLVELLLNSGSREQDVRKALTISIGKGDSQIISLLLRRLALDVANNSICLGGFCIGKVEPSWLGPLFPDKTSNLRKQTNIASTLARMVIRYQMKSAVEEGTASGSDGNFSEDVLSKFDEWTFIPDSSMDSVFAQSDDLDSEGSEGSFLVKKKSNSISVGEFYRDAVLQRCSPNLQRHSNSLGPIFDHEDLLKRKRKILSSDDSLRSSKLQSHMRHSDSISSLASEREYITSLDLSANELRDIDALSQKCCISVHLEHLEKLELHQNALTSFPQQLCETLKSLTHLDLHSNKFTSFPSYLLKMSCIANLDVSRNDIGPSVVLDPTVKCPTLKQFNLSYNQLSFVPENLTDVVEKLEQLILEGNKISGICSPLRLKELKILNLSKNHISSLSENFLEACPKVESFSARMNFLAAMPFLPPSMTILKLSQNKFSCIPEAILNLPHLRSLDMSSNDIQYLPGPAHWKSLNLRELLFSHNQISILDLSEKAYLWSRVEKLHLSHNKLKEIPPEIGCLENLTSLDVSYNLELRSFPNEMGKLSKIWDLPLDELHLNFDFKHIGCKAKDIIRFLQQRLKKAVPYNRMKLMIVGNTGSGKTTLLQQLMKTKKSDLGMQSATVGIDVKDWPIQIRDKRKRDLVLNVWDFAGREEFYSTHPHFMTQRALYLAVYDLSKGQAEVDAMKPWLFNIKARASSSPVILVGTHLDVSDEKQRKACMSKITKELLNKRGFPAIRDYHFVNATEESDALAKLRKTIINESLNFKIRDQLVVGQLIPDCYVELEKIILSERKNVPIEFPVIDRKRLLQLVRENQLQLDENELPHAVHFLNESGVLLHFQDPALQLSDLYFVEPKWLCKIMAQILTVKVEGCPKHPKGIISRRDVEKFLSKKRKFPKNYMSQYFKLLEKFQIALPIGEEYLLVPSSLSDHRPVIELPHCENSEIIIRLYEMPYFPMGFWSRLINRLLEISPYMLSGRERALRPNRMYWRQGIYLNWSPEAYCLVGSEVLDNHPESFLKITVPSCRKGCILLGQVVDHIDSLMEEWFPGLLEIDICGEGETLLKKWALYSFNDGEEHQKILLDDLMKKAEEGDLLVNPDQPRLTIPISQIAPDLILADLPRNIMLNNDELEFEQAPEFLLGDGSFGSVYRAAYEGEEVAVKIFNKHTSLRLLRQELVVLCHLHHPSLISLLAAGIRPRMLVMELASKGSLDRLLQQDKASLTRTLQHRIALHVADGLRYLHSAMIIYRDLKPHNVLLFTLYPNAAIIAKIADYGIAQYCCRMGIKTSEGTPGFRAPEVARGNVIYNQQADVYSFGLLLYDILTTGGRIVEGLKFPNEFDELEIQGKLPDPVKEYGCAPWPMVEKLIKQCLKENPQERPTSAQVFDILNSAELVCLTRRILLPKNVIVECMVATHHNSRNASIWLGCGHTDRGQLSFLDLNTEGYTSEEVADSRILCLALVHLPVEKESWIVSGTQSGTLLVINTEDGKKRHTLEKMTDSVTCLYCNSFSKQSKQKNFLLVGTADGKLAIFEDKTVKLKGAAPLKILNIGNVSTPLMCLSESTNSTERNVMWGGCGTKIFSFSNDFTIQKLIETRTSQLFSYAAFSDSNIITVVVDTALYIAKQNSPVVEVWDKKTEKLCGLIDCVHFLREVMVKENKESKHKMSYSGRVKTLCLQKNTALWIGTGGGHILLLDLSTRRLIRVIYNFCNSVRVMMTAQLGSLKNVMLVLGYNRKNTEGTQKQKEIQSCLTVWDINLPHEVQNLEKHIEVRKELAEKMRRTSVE
T1 sequence (Q13557 whole entry): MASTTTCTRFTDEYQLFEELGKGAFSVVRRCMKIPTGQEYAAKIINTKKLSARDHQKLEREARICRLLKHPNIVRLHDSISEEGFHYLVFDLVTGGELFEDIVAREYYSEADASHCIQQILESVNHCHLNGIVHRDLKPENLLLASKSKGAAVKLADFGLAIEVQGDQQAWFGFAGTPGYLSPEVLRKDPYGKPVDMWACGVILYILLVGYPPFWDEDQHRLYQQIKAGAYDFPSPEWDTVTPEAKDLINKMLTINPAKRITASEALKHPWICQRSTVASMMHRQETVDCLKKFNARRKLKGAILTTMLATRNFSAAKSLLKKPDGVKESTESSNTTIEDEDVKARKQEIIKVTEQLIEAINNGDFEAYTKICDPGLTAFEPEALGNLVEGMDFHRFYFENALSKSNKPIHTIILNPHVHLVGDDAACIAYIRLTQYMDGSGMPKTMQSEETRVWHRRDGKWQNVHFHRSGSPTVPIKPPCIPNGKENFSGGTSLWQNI
T7 sequence (Q16512 whole entry): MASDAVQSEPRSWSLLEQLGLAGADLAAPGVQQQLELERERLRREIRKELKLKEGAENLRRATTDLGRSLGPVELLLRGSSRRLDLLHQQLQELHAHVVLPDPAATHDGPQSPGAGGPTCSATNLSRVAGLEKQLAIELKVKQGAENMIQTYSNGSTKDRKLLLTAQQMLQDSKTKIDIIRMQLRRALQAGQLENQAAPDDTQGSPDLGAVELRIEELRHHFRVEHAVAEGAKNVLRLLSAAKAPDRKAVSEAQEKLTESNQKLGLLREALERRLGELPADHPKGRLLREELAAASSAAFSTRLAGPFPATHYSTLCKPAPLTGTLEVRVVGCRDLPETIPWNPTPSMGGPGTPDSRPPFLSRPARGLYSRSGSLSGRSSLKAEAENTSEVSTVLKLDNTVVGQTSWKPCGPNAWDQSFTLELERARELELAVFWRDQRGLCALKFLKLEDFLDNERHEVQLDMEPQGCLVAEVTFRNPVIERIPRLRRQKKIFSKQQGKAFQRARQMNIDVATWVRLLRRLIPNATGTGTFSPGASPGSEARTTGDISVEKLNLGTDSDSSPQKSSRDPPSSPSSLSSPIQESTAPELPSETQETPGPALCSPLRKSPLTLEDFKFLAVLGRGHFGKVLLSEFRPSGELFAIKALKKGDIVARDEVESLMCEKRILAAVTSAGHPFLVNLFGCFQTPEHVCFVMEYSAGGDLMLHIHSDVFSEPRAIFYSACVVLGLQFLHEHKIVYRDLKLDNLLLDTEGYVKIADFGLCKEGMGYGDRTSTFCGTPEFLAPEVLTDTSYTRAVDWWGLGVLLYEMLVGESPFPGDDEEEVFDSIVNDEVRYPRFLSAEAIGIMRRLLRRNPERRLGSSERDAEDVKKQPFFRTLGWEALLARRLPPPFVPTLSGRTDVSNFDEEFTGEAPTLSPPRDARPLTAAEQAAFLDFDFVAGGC

COc1cc(Nc2ncnc(Nc3cc4c(cn3)NC(=O)C(C)(C)O4)n2)cc(OC)c1OC [MT-SYK-03]
remaining activity at 0.5 µM (CAMK2d): 104% | remaining activity at 0.5 µM (CLK1): 90.4% | remaining activity at 0.5 µM (HPK1/MAP4K1): 107% | remaining activity at 0.5 µM (LIMK2): 84.9% | remaining activity at 0.5 µM (LRRK2): 48% | IC50 (LRRK2; 10-dose mode, threefold serial dilution from 10 μM): 206 nM | remaining activity at 0.5 µM (MST1/STK4): 94.2% | remaining activity at 0.5 µM (PKN1/PRK1): 104% | remaining activity at 0.5 µM (RAF1): 91.5% | Residual enzymatic activity (c-Kit): 69.2% | remaining activity at 0.5 µM (c-Kit): > 54% | Number of kinases inhibited by more than 50% (341 kinases): 34 kinases | Number of kinases inhibited by more than 80% (341 kinases): 13 kinases | Number of kinases inhibited by more than 90% (341 kinases): five

COc1cc(Nc2ncc(F)c(Nc3ccc4c(n3)NC(=O)C(C)(C)O4)n2)cc(OC)c1OC [R406, reference compound]
remaining activity at 0.5 µM (CAMK2d; 500 nM, relative to DMSO): 98.9% | remaining activity at 0.5 µM (CLK1): 61.7% | remaining activity at 0.5 µM (HPK1/MAP4K1): 98.8% | remaining activity at 0.5 µM (LIMK2): 77.5% | remaining activity at 0.5 µM (LRRK2): 5.5% | remaining activity at 0.5 µM (MST1/STK4): 86.3% | remaining activity at 0.5 µM (PKN1/PRK1): 62.6% | remaining activity at 0.5 µM (RAF1): 73.3% | remaining activity at 0.5 µM (c-Kit): 37.1% | Number of kinases inhibited by more than 50% (341 kinases): 104 kinases | Number of kinases inhibited by more than 80% (341 kinases): 50 kinases | Number of kinases inhibited by more than 90% (341 kinases): 26 kinases
